In patent US20260305610A1, “TRIAZOLE COMPOUND, AND PREPARATION METHOD THEREFOR, HERBICIDAL COMPOSITION AND USE THEREOF” (QINGDAO KINGAGROOT CHEMICAL COMPOUND CO., LTD., priority 2023, published 2026):

Columns and labels:
[1] = test system: monocotyledonous and dicotyledonous weeds; assay: Pre-emergence test experiment (weeds); format: in vivo; parameters: key: 9: completely dead; 8: growth control rate is greater than or equal to 90% and less than 100%; 7: growth control rate is greater than or equal to 80% and less than 90%; 6: growth control rate is greater than or equal to 70% and less than 80%; growth control rate is greater than or equal to 50% and less than 70%; 4: growth control rate is greater than or equal to 30% and less than 50%; growth control rate is greater than or equal to 20% and less than 30%; growth control rate is greater than or equal to 10% and less than 20%; growth control rate is less than 10%; 0: no effect; settings: 30 g a.i./ha
[2] = test system: major crops; assay: Pre-emergence test experiment (crops); format: in vivo; parameters: key: 9: completely dead; 8: growth control rate is greater than or equal to 90% and less than 100%; 7: growth control rate is greater than or equal to 80% and less than 90%; 6: growth control rate is greater than or equal to 70% and less than 80%; growth control rate is greater than or equal to 50% and less than 70%; 4: growth control rate is greater than or equal to 30% and less than 50%; growth control rate is greater than or equal to 20% and less than 30%; growth control rate is greater than or equal to 10% and less than 20%; growth control rate is less than 10%; 0: no effect; settings: 30 g a.i./ha

## Cc1ccc(-n2cnc(C(F)(F)C(F)(F)F)n2)nc1Oc1cccc(OC(F)F)c1 [Compound 127]
[1]
  Pre-emergence activity level (growth control rate) on Descurainia sophia: 9
  Pre-emergence activity level (growth control rate) on Setaria viridis: 8 (growth control rate is greater than or equal to 90% and less than 100%)
  Pre-emergence activity level (growth control rate) on Solanum nigrum: 9

## Cc1ccc(-n2cnc(C(F)(F)F)n2)nc1Oc1cncc(C(F)(F)F)c1 [Compound 11]
[2]
  Pre-emergence plant damage level (growth control rate) on Corn: 0
  Pre-emergence plant damage level (growth control rate) on Cotton: 0
  Pre-emergence plant damage level (growth control rate) on Soybean: 0
[1]
  Pre-emergence activity level (growth control rate) on Amaranthus retroflexus: 9
  Pre-emergence activity level (growth control rate) on Descurainia sophia: 9
  Pre-emergence activity level (growth control rate) on Digitaria sanguinalis: 9
  Pre-emergence activity level (growth control rate) on Setaria viridis: 9
  Pre-emergence activity level (growth control rate) on Solanum nigrum: 9
  Pre-emergence activity level (growth control rate) on Veronica: 9

## CCc1ccc(-n2cnc(C(F)F)n2)nc1Oc1cccc(C(F)(F)F)c1 [Compound 72]
[2]
  Pre-emergence plant damage level (growth control rate) on Corn: 0
  Pre-emergence plant damage level (growth control rate) on Cotton: 0
  Pre-emergence plant damage level (growth control rate) on Soybean: 0
[1]
  Pre-emergence activity level (growth control rate) on Amaranthus retroflexus: 9
  Pre-emergence activity level (growth control rate) on Descurainia sophia: 9
  Pre-emergence activity level (growth control rate) on Digitaria sanguinalis: 7 (growth control rate is greater than or equal to 80% and less than 90%)
  Pre-emergence activity level (growth control rate) on Setaria viridis: 8 (growth control rate is greater than or equal to 90% and less than 100%)
  Pre-emergence activity level (growth control rate) on Solanum nigrum: 9
  Pre-emergence activity level (growth control rate) on Veronica: 9

## CCc1ccc(-n2cnc(C(F)(F)F)n2)nc1Oc1ccc(F)c(OC(F)F)c1 [Compound 132]
[2]
  Pre-emergence plant damage level (growth control rate) on Corn: 0
  Pre-emergence plant damage level (growth control rate) on Cotton: 0
  Pre-emergence plant damage level (growth control rate) on Soybean: 0
[1]
  Pre-emergence activity level (growth control rate) on Amaranthus retroflexus: 9
  Pre-emergence activity level (growth control rate) on Descurainia sophia: 9
  Pre-emergence activity level (growth control rate) on Digitaria sanguinalis: 9
  Pre-emergence activity level (growth control rate) on Setaria viridis: 9
  Pre-emergence activity level (growth control rate) on Solanum nigrum: 9
  Pre-emergence activity level (growth control rate) on Veronica: 9

## CCc1ccc(-n2cnc(C(F)(F)F)n2)nc1Oc1cccc(Cl)c1 [Compound 130]
[1]
  Pre-emergence activity level (growth control rate) on Descurainia sophia: 9
  Pre-emergence activity level (growth control rate) on Solanum nigrum: 9

## Cc1cc(Oc2ccc(F)c(C(F)(F)F)c2)nc(-n2cnc(C(F)(F)F)n2)c1 [Compound 120]
[1]
  Pre-emergence activity level (growth control rate) on Descurainia sophia: 9

## CCc1ccc(-n2cnc(C(F)(F)F)n2)nc1Oc1cccc(C#N)c1 [Compound 89]
[1]
  Pre-emergence activity level (growth control rate) on Amaranthus retroflexus: 9
  Pre-emergence activity level (growth control rate) on Digitaria sanguinalis: 9
  Pre-emergence activity level (growth control rate) on Setaria viridis: 9

## Cc1cc(Oc2cccc(OC(F)(F)F)c2)nc(-n2cnc(C(F)(F)F)n2)c1 [Compound 122]
[1]
  Pre-emergence activity level (growth control rate) on Amaranthus retroflexus: 8 (growth control rate is greater than or equal to 90% and less than 100%)
  Pre-emergence activity level (growth control rate) on Descurainia sophia: 9
  Pre-emergence activity level (growth control rate) on Digitaria sanguinalis: 8 (growth control rate is greater than or equal to 90% and less than 100%)
  Pre-emergence activity level (growth control rate) on Setaria viridis: 9
  Pre-emergence activity level (growth control rate) on Veronica: 8 (growth control rate is greater than or equal to 90% and less than 100%)

## Cc1ccc(-n2cnc(C(F)F)n2)nc1Oc1cccc(F)c1 [Compound 81]
[1]
  Pre-emergence activity level (growth control rate) on Amaranthus retroflexus: 9
  Pre-emergence activity level (growth control rate) on Descurainia sophia: 9
  Pre-emergence activity level (growth control rate) on Veronica: 9

## CCc1ccc(-n2cnc(C(F)(F)F)n2)nc1Oc1cncc(C#N)c1 [Compound 94]
[1]
  Pre-emergence activity level (growth control rate) on Setaria viridis: 8 (growth control rate is greater than or equal to 90% and less than 100%)

## CSc1cc(Oc2cccc(OC(F)(F)F)c2)nc(-n2cnc(C(F)(F)F)n2)c1 [Compound 87]
[1]
  Pre-emergence activity level (growth control rate) on Veronica: 8 (growth control rate is greater than or equal to 90% and less than 100%)

## Cc1cc(Oc2cccc(Cl)c2)nc(-n2cnc(C(F)(F)F)n2)c1 [Compound 121]
[1]
  Pre-emergence activity level (growth control rate) on Descurainia sophia: 9

## CSc1cc(Oc2cccc(C(F)(F)F)c2)nc(-n2cnc(C(F)(F)F)n2)c1 [Compound 86]
[1]
  Pre-emergence activity level (growth control rate) on Veronica: 9

## CCc1ccc(-n2cnc(C(F)(F)F)n2)nc1Oc1ccc(F)c(C#N)c1 [Compound 96]
[1]
  Pre-emergence activity level (growth control rate) on Amaranthus retroflexus: 8 (growth control rate is greater than or equal to 90% and less than 100%)
  Pre-emergence activity level (growth control rate) on Descurainia sophia: 9

## CCc1ccc(-n2cnc(C(F)(F)F)n2)nc1Oc1cccc(C)c1 [Compound 134]
[1]
  Pre-emergence activity level (growth control rate) on Amaranthus retroflexus: 8 (growth control rate is greater than or equal to 90% and less than 100%)
  Pre-emergence activity level (growth control rate) on Descurainia sophia: 9
  Pre-emergence activity level (growth control rate) on Digitaria sanguinalis: 8 (growth control rate is greater than or equal to 90% and less than 100%)

## Cc1ccc(-n2cnc(C(F)(F)C(F)(F)F)n2)nc1Oc1cccc(C(F)F)c1 [Compound 125]
[1]
  Pre-emergence activity level (growth control rate) on Descurainia sophia: 9
  Pre-emergence activity level (growth control rate) on Solanum nigrum: 9

## COCc1ccc(-n2cnc(C(F)(F)F)n2)nc1Oc1cccc(F)c1 [Compound 138]
[1]
  Pre-emergence activity level (growth control rate) on Descurainia sophia: 9
  Pre-emergence activity level (growth control rate) on Solanum nigrum: 9

## Cc1ccc(-n2cnc(C3CC3)n2)nc1Oc1cccc(C(F)(F)F)c1 [Compound 100]
[1]
  Pre-emergence activity level (growth control rate) on Setaria viridis: 9
  Pre-emergence activity level (growth control rate) on Solanum nigrum: 8 (growth control rate is greater than or equal to 90% and less than 100%)

## Cc1ccc(-n2cnc(C(F)(F)F)n2)nc1Oc1cccc(C#N)c1 [Compound 88]
[1]
  Pre-emergence activity level (growth control rate) on Amaranthus retroflexus: 9
  Pre-emergence activity level (growth control rate) on Solanum nigrum: 9

## CCc1ccc(-n2cnc(C(F)F)n2)nc1Oc1cccc(F)c1 [Compound 128]
[1]
  Pre-emergence activity level (growth control rate) on Solanum nigrum: 9

## CCc1ccc(-n2cnc(C(F)(F)F)n2)nc1Oc1cccc(F)c1 [Compound 129]
[1]
  Pre-emergence activity level (growth control rate) on Digitaria sanguinalis: 8 (growth control rate is greater than or equal to 90% and less than 100%)
  Pre-emergence activity level (growth control rate) on Setaria viridis: 9

## Cc1ccc(-n2cnc(C(F)(F)C(F)(F)F)n2)nc1Oc1ccc(F)c(C(F)(F)F)c1 [Compound 126]
[1]
  Pre-emergence activity level (growth control rate) on Descurainia sophia: 9
  Pre-emergence activity level (growth control rate) on Solanum nigrum: 9

## Cc1cc(Oc2ccc(F)c(OC(F)(F)F)c2)nc(-n2cnc(C(F)(F)F)n2)c1 [Compound 123]
[1]
  Pre-emergence activity level (growth control rate) on Descurainia sophia: 9

## CSc1cc(Oc2cncc(C(F)(F)F)c2)nc(-n2cnc(C(F)(F)F)n2)c1 [Compound 111]
[1]
  Pre-emergence activity level (growth control rate) on Descurainia sophia: 9
  Pre-emergence activity level (growth control rate) on Setaria viridis: 8 (growth control rate is greater than or equal to 90% and less than 100%)

## CCc1ccc(-n2cnc(C(F)F)n2)nc1Oc1cccc(Cl)c1 [Compound 131]
[1]
  Pre-emergence activity level (growth control rate) on Solanum nigrum: 9
